Measured values published in US6060448A, “Casein fragments having growth promoting activity” (Pepsyn Limited, priority 1995, dated 2000).

Test system: Rama 27 cells
Test: incorporation of [3H] thymidine into the DNA of Rama 27 cells (growth promoting / mitogenic assay)
Format: cell-based
Conditions: Rama 27 rat mammary fibroblast cell line
Experimental: The growth promoting activity of different milk types was determined by precipitating caseins and assaying the supernatants for their ability to stimulate the incorporation of [3H] thymidine into the DNA of Rama 27 cells by known methodology (Smith et al, 1984).
The protein fractions A,B,C, of the casein digest where assayed for their ability to stimulate the incorporation of [3H] thymidine into the DNA of Rama 27 cells exactly as described previously.
In table 1, * indicates one unit of activity is defined as the amount of protein required to produce half maximal stimulation compared with 1% FCS when added to R27 cells.

Q: For PDGF, which “growth promoting activity (incorporation of 3H-thymidine into DNA)” value is on record?
A: not significantly stimulated
